Test [1] has as its target T1, hNav1.7 (Homo sapiens (Human), UniProt Q15858). The test can be described thus: Tritiated aryl sulfonamide binding to membranes from cells expressing hNav1.7 and the β1 subunit (competitive binding). The conditions noted are these: membranes with hNav1.7 and β1 subunit; [3H]compound displacement, 18 h, room temperature; read-out: NaV1.7 395 Memb Binding (IC50). The method, boiled down: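 Competitive displacement of 100 μM [3H]-labelled tritiated aryl sulfonamide from hNav1.7/β1 membranes, 18 h at room temperature in 100 mM NaCl, 20 mM Tris HCl pH 7.4. Non-specific binding defined with 1 μM unlabelled compound. Filter-bound radioactivity measured by liquid scintillation counting.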

The target of test [2] is T1, hNav1.7. The test can be described thus: Patch voltage clamp electrophysiology (PatchXpress), HEK-293 cells, inactivated state block. The conditions noted are these: HEK-293 cells, β1 coexpressed; inactivated state, holding −60 mV; read-out: EP_PX 293 hNav1.7 (IC50). The test is classed as cell-based.

T1 sequence (Q15858 whole entry, looked up): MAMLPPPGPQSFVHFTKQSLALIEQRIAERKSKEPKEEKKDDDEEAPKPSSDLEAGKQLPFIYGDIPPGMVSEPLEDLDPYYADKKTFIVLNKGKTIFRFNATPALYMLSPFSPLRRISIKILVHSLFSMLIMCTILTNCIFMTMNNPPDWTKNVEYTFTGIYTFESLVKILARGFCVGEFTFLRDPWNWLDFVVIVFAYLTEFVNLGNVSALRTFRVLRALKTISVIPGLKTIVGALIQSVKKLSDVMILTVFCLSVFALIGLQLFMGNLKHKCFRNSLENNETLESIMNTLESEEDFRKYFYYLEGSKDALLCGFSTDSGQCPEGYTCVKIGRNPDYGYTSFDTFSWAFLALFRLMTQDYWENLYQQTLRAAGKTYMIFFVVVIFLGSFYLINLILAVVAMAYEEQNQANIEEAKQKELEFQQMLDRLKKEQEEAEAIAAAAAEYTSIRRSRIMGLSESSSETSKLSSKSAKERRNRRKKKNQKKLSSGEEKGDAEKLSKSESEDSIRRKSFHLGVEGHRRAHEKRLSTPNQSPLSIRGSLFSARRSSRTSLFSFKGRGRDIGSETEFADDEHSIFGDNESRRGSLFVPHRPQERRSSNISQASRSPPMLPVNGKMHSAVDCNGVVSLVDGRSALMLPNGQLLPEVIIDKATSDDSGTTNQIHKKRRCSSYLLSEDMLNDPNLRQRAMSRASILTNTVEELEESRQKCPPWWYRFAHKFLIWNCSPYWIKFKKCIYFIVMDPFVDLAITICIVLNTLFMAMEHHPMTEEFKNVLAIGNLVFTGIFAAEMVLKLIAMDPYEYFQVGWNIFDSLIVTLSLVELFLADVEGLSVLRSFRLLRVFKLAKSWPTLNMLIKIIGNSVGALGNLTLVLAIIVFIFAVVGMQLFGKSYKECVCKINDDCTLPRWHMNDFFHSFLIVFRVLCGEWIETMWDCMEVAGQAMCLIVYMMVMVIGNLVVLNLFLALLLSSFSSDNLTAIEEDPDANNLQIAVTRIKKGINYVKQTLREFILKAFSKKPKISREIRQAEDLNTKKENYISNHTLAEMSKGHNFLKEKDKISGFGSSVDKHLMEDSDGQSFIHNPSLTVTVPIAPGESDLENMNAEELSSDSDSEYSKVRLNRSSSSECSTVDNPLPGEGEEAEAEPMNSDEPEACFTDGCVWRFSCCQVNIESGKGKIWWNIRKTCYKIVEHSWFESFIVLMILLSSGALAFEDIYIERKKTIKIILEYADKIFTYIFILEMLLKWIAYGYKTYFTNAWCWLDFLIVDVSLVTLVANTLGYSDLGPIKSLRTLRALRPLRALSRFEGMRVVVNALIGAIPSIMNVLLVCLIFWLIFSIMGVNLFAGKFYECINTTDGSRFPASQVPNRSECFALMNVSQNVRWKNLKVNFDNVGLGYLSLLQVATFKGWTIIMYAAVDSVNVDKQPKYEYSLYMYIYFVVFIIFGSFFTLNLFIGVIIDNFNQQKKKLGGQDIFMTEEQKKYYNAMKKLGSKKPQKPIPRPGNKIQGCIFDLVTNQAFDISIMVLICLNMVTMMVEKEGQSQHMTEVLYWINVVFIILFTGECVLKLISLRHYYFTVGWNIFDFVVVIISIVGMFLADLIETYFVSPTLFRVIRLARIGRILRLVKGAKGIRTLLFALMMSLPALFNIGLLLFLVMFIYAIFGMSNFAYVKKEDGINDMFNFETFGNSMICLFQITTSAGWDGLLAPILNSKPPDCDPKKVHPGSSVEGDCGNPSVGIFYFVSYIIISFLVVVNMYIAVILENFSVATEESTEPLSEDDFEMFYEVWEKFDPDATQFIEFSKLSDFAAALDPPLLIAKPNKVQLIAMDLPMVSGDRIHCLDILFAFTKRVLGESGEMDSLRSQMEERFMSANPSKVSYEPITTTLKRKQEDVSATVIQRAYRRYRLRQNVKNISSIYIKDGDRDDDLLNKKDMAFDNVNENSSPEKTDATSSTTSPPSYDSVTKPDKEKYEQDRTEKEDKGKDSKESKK
T1 sequence (Q07699 whole entry partner, looked up): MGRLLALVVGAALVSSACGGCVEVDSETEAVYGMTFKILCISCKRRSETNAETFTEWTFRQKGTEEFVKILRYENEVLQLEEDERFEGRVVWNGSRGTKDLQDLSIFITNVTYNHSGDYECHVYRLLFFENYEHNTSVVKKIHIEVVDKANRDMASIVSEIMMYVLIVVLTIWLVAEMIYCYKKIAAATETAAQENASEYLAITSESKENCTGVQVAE

By IC50 is commonly meant the point on the concentration scale where inhibition reaches its midpoint. For the molecule `CO[C@@H]1CCN(S(=O)(=O)NC(=O)c2cc(C3CC3)c(OCC34CC5CC(CC(C5)C3)C4)cc2F)C1` [Example 301], the IC50 in test [1] is 14 nM; in test [2], 360 nM.
As to `CC1CCC(COc2cc(F)c(C(=O)NS(C)(=O)=O)cc2C2CC2)CC1` (stereo not shown), the results for the IC50 in test [1] and in test [2] were 8 nM and 28 nM, respectively.
On the same counts, the results for `CC1(COc2cc(F)c(C(=O)NS(=O)(=O)N3CCC3)cc2C2CC2)CCC(C(F)(F)F)CC1` (stereo not shown) [Example 427, N-(azetidin-1-ylsulfonyl)-5-cyclopropyl-2-fluoro-4-[[1-methyl-4-(trifluoromethyl)cyclohexyl]methoxy]benzamide] are 3 nM and 130 nM.
`CC1CCCC(C)C1COc1cc(F)c(C(=O)NS(=O)(=O)N2CCC2)cc1C1CC1` (stereo not shown): the results for the IC50 in test [1] and in test [2] were 60 nM and 390 nM, respectively.
On the same counts, the results for `O=C(NS(=O)(=O)N1CCC1)c1cc(C2CC2)c(OCC23CCCCC2C3(F)F)cc1F` (stereo not shown) [Example 431, N-(azetidin-1-ylsulfonyl)-5-cyclopropyl-4-[(7,7-difluoronorcaran-1-yl)methoxy]-2-fluoro-benzamide] are 13 nM and 10 nM.
For `CO[C@H]1CCN(S(=O)(=O)NC(=O)c2cc(C3CC3)c(OCC34CC5CC(CC(C5)C3)C4)cc2F)C1`, the IC50 in test [1] came out at 29 nM; in test [2], 300 nM.
The corresponding values for `CC1CCCC(C)C1COc1cc(F)c(C(=O)NS(=O)(=O)C2CC2)cc1Cl` (stereo not shown) [Example 397] are 32 nM and 200 nM.
On to `CS(=O)(=O)NC(=O)c1cc(C2CC2)c(OC2CCC3(CC2)CC3)cc1F`, for which the IC50 is 21 nM in test [1] and 18 nM in test [2].
The corresponding values for `CC1(COc2cc(F)c(C(=O)NS(C)(=O)=O)cc2C2CC2)CCC(C(F)(F)F)CC1` (stereo not shown) are 4 nM and 59 nM.
Regarding `O=C(NS(=O)(=O)C1CC1)c1cc(C2CC2)c(O[C@H]2C3CC4CC2C[C@](F)(C4)C3)cc1F`, the IC50 in test [1] was determined as 11 nM; in test [2] it was 43 nM.
With `O=C(NS(=O)(=O)C1CC1)c1cc(C2CC2)c(OCC2CCC(C(F)(F)F)CC2)cc1F` (stereo not shown) [Example 428, 5-cyclopropyl-N-cyclopropylsulfonyl-2-fluoro-4-[[4-(trifluoromethyl)cyclohexyl]methoxy]benzamide], the IC50 in test [1] turned out to be 4 nM; in test [2], 12 nM.
Regarding `O=C(NS(=O)(=O)N1CCC1)c1cc(C2CC2)c(OC2CCC(F)(F)CC2)cc1F`, the IC50 worked out at 110 nM in test [1] and 270 nM in test [2].
On the same counts, the results for `O=C(NS(=O)(=O)C1CC1)c1cc(Cl)c(OC2CCC(F)(F)CC2)cc1F` [Example 339] are 310 nM and 3300 nM.
On the same counts, the results for `CS(=O)(=O)NC(=O)c1cc(C2CC2)c(O[C@H]2C3CC4CC2C[C@@](Cl)(C4)C3)cc1F` are 9 nM and 7 nM.
The corresponding values for `CS(=O)(=O)NC(=O)c1cc(Cl)c(OCC2CC=CCC2)cc1F` (stereo not shown) are 130 nM and 1300 nM.
Consider `O=C(NS(=O)(=O)C1CC1)c1cc(C2CC2)c(O[C@H]2C3CC4CC2C[C@@](Cl)(C4)C3)cc1F`, for which the 50% inhibitory concentration (IC50) in test [1] was found to be 4 nM; in test [2], 24 nM.
On to `O=C(NS(=O)(=O)N1CCC1)c1cc(C2CC2)c(OC2C3CC4CC(C3)CC2C4)cc1F` (stereo not shown), for which the IC50 worked out at 10 nM in test [1] and 56 nM in test [2].
In the case of `CC1(C)CCCC(Oc2cc(F)c(C(=O)NS(=O)(=O)N3CCC3)cc2C2CC2)C1` (stereo not shown) [Example 357], the IC50 was determined as 16 nM in test [1] and 120 nM in test [2].
On the same counts, the results for `CC1(F)CCC(COc2cc(F)c(C(=O)NS(=O)(=O)N3CCC3)cc2C2CC2)CC1` (stereo not shown) are 22 nM and 35 nM.
Take `CC1(F)CCC(COc2cc(F)c(C(=O)NS(=O)(=O)N3CCC3)cc2Cl)CC1` (stereo not shown) [Example 331]: the IC50 in test [1] worked out at 450 nM; in test [2], 710 nM.
The corresponding values for `O=C(NS(=O)(=O)N1CCC1)c1cc(C2CC2(F)F)c(OCC23CC4CC(CC(C4)C2)C3)cc1F` (stereo not shown) are 5 nM and 340 nM.
For the molecule `CC(Oc1cc(F)c(C(=O)NS(C)(=O)=O)cc1Cl)C12CC3CC(CC(C3)C1)C2` (stereo not shown) [Example 31], the IC50 in test [1] turned out to be 1400 nM; in test [2], 146 nM.
`O=C(NS(=O)(=O)N1CCC1)c1cc(C2CC2)c(OCC2CC=C(C3CC3)CC2)cc1F` (stereo not shown): the half-maximal inhibitory concentration (IC50) was determined as 6 nM in test [1] and 10 nM in test [2].
The corresponding values for `N#CC1(COc2cc(F)c(C(=O)NS(=O)(=O)N3CCC3)cc2C2CC2)C2CC3CC(C2)CC1C3` (stereo not shown) are 9 nM and 5 nM.
The corresponding values for `O=C(NS(=O)(=O)N1CCC1)c1cc(Cl)c(OCC2(C(F)(F)F)CCC2)cc1F` [Example 330] are 25 nM and 91 nM.
On the same counts, the results for `O=C(NS(=O)(=O)N1CCC1)c1cc(F)c(OCC23CC4CC(CC(C4)C2)C3)c(Cl)c1F` are 1300 nM and 5200 nM.
